PubChem BioAssay (NCI)
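Test compounds were applied to cells in 96-well plates for 48 hours at 5 doses. TGI: total growth inhibition.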

Assays:
Experiment in all cases: NCI tumour cell line growth inhibition, 48 h
[1] = test system: HL-60(TB) leukemia
[2] = test system: MALME-3M melanoma
[3] = test system: UACC-257 melanoma
[4] = test system: RPMI-8226 leukemia
[5] = test system: SK-OV-3 ovarian
[6] = test system: OVCAR-8 ovarian
[7] = test system: OVCAR-3 ovarian
[8] = test system: HCT-15 colon
[9] = test system: DLD-1 colon
[10] = test system: K-562 leukemia
[11] = test system: TK-10 renal
[12] = test system: SNB-78 CNS
[13] = test system: NCI-H226 lung
[14] = test system: HCT-116 colon
[15] = test system: HOP-62 NSCLC
[16] = test system: OVCAR-5 ovarian
[17] = test system: 786-0 renal
[18] = test system: NCI-H23 lung
[19] = test system: NCI-H522 lung
[20] = test system: CCRF-CEM leukemia
[21] = test system: A549 NSCLC
[22] = test system: SF-539 CNS
[23] = test system: SK-MEL-28 melanoma
[24] = test system: RXF-631 renal
[25] = test system: M19-MEL melanoma
[26] = test system: SF-268 CNS
[27] = test system: NCI-H460 lung
[28] = test system: COLO 205 colon
[29] = test system: KM20L2 colon
[30] = test system: RXF 393 renal
[31] = test system: SK-MEL-5 melanoma
[32] = test system: OVCAR-4 ovarian
[33] = test system: IGROV1 ovarian
[34] = test system: EKVX NSCLC
[35] = test system: UACC-62 melanoma
[36] = test system: ACHN renal
[37] = test system: HOP-92 NSCLC
[38] = test system: LXFL 529 NSCLC
[39] = test system: SN12C renal
[40] = test system: MOLT-4 leukemia
[41] = test system: SNB-19 CNS
[42] = test system: A498 renal
[43] = test system: DMS 273 small cell lung
[44] = test system: HOP-18 NSCLC
[45] = test system: U251 CNS
[46] = test system: HT29 colon
[47] = test system: M14 melanoma
[48] = test system: SR leukemia
[49] = test system: DMS 114 small cell lung
[50] = test system: SK-MEL-2 melanoma
[51] = test system: UO-31 renal
[52] = test system: SNB-75 CNS
[53] = test system: KM12 colon
[54] = test system: XF 498 CNS
[55] = test system: CAKI-1 renal
[56] = test system: SW-620 colon
[57] = test system: LOX IMVI melanoma
[58] = test system: SF-295 CNS
[59] = test system: HCC-2998 colon

Measured: TGI

CCOc1ccc(OP2(=O)NC(=O)C=C(C)N2)cc1 (stereo not given)
> 100 µM: [1] | [2] | [3] | [4] | [5] | [6] | [7] | [8] | [9] | [10] | [11] | [12] | [13] | [14] | [15] | [16] | [17] | [18] | [19] | [20] | [21] | [22] | [23] | [24] | [25] | [26] | [27] | [28] | [29] | [30] | [31] | [32] | [33] | [34] | [35] | [36] | [37] | [38] | [39] | [40] | [41] | [42] | [43] | [44] | [45] | [46] | [47] | [48] | [49] | [50] | [51] | [52] | [53] | [54] | [55] | [56] | [57] | [58]

CC(C)(C)c1ccc(OCCOCCOc2ccc(C(C)(C)C)cc2S(N)(=O)=O)c(S(N)(=O)=O)c1
28.7 µM: [40]
> 100 µM: [1] | [2] | [3] | [4] | [5] | [6] | [7] | [8] | [9] | [10] | [11] | [12] | [13] | [14] | [15] | [16] | [17] | [18] | [20] | [59] | [21] | [22] | [23] | [24] | [25] | [26] | [27] | [28] | [30] | [31] | [32] | [33] | [34] | [35] | [36] | [37] | [39] | [41] | [42] | [43] | [44] | [45] | [46] | [47] | [49] | [50] | [51] | [52] | [53] | [55] | [56] | [57] | [58]

COc1ccc2cc3n(c(=O)c2c1)CCc1c-3cc(OC)c(OC)c1OC
98.6 µM: [52]
> 100 µM: [1] | [2] | [3] | [4] | [5] | [6] | [7] | [8] | [9] | [10] | [11] | [12] | [13] | [14] | [15] | [16] | [17] | [18] | [19] | [20] | [59] | [21] | [22] | [23] | [25] | [26] | [28] | [29] | [31] | [32] | [33] | [34] | [35] | [36] | [37] | [38] | [39] | [40] | [41] | [43] | [44] | [45] | [46] | [47] | [48] | [49] | [50] | [51] | [54] | [55] | [56] | [58]
